{
  "source": "paper PMC1989143",
  "about": "“An Expanded Set of Amino Acid Analogs for the Ribosomal Translation of Unnatural Peptides” (PLoS ONE, 2007)",
  "experiment_in_all_cases": "tRNA aminoacylation competition assay, MALDI-TOF MS",
  "assay_type_in_all_cases": "biochemical",
  "key": {"[1]": {"biological_target": "T1, TyrRS (Escherichia coli, UniProt P0AGJ9)", "T1 construct": "gene tyrS; His-tagged, recombinant, purified", "conditions": "5000 µM; 5 µM natural Tyr (Table 3), 6 mM ATP, 17 mM MgCl2, E. coli total tRNA, pH 7.4, 37 °C; competitive", "source_text": "tRNA aminoacylation competition assay, MALDI-TOF MS on TyrRS"}, "[2]": {"biological_target": "T2, MetRS (Escherichia coli, UniProt P00959)", "T2 construct": "gene metG; His-tagged, recombinant, purified", "T2 sequence (P00959 2-677)": "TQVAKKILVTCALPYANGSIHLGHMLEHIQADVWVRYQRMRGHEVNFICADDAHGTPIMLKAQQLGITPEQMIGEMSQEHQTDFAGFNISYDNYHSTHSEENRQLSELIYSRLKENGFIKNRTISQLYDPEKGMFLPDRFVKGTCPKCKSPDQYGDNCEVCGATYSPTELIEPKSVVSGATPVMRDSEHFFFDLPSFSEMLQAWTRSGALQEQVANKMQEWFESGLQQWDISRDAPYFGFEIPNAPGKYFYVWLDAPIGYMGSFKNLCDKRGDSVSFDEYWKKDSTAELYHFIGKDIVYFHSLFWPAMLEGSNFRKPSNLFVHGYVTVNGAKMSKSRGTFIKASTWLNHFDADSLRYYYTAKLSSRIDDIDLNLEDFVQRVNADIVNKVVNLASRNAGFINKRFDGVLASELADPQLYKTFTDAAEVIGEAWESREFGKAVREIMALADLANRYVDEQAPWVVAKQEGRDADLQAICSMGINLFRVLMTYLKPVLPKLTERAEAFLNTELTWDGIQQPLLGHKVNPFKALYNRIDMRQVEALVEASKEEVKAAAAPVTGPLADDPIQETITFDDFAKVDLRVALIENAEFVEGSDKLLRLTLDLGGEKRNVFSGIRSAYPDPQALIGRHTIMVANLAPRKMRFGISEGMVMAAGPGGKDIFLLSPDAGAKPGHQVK", "conditions": "50000 µM; 50 µM natural Met (Table 3), 6 mM ATP, 17 mM MgCl2, E. coli total tRNA, pH 7.4, 37 °C; competitive", "source_text": "tRNA aminoacylation competition assay, MALDI-TOF MS on MetRS"}, "[3]": {"biological_target": "T3, GluRS (Escherichia coli, UniProt P04805)", "T3 construct": "gene gltX; His-tagged, recombinant, purified", "T3 sequence (P04805 1-471)": "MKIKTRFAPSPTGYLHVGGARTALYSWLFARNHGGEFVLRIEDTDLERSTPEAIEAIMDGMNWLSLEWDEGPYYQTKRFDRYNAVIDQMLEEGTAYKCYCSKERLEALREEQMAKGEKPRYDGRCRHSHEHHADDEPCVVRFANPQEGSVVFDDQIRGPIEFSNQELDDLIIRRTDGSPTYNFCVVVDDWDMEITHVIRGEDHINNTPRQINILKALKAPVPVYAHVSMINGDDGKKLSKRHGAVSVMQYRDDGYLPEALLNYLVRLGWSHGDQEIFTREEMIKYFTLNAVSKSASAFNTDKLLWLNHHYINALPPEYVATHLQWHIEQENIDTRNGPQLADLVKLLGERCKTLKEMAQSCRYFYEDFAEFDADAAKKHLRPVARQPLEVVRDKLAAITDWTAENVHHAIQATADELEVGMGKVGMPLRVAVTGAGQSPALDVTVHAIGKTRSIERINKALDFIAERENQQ", "conditions": "10000 µM; 10 µM natural Glu (Table 3), 6 mM ATP, 17 mM MgCl2, E. coli total tRNA, pH 7.4, 37 °C; competitive", "source_text": "tRNA aminoacylation competition assay, MALDI-TOF MS on GluRS"}, "[4]": {"biological_target": "T4, ValRS (Escherichia coli, UniProt P07118)", "T4 construct": "gene valS; His-tagged, recombinant, purified", "T4 sequence (P07118 1-951)": "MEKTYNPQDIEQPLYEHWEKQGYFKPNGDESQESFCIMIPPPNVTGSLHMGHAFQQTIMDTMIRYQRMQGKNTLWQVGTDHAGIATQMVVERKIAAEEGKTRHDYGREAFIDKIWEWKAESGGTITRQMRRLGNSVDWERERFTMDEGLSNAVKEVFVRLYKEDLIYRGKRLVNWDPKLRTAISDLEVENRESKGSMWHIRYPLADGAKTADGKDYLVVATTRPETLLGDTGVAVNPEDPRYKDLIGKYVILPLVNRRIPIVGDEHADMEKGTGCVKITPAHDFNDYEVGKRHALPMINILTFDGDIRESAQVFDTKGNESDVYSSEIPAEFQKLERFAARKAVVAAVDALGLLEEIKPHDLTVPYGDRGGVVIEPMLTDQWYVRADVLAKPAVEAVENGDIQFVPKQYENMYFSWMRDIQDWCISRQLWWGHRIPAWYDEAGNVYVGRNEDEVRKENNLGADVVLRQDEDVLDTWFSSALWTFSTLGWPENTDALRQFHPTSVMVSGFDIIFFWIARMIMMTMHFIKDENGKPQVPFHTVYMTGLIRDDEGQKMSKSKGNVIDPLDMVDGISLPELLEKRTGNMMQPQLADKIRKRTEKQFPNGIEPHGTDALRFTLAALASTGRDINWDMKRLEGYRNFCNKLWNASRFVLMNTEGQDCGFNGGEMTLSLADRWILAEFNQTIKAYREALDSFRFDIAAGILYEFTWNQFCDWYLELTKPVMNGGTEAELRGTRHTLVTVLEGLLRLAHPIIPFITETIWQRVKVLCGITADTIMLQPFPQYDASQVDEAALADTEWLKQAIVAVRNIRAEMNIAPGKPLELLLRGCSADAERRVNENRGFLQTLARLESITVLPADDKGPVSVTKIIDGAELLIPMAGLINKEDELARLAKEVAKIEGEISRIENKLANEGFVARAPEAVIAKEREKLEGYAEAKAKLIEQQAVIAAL", "conditions": "50000 µM; 50 µM natural Val (Table 3), 6 mM ATP, 17 mM MgCl2, E. coli total tRNA, pH 7.4, 37 °C; competitive", "source_text": "tRNA aminoacylation competition assay, MALDI-TOF MS on ValRS"}, "[5]": {"biological_target": "T5, LeuRS (Escherichia coli, UniProt P07813)", "T5 construct": "gene leuS; His-tagged, recombinant, purified; wild-type", "conditions": "30000 µM; 30 µM natural Leu (Table 3), 6 mM ATP, 17 mM MgCl2, E. coli total tRNA, pH 7.4, 37 °C; competitive", "source_text": "tRNA aminoacylation competition assay, MALDI-TOF MS on LeuRS"}, "[6]": {"biological_target": "T6, ProRS (Escherichia coli, UniProt P16659)", "T6 construct": "gene proS; His-tagged, recombinant, purified", "T6 sequence (P16659 1-572)": "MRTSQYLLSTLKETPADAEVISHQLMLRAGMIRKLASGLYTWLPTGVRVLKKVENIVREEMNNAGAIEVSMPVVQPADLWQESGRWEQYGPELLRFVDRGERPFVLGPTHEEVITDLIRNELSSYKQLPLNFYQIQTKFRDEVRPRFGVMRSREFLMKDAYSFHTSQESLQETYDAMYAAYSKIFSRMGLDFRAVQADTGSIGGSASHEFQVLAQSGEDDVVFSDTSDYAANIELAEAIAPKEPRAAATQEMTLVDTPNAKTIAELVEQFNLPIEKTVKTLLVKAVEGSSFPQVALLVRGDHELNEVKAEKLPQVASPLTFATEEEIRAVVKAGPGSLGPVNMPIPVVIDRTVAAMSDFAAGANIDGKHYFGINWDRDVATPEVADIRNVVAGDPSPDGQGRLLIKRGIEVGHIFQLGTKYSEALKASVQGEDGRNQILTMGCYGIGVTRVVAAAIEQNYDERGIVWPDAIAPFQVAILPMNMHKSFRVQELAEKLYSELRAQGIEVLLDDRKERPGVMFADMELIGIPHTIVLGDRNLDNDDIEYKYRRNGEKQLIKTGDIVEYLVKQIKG", "conditions": "50000 µM; 50 µM natural Pro (Table 3), 6 mM ATP, 17 mM MgCl2, E. coli total tRNA, pH 7.4, 37 °C; competitive", "source_text": "tRNA aminoacylation competition assay, MALDI-TOF MS on ProRS"}, "[7]": {"biological_target": "T7, HisRS (Escherichia coli, UniProt P60906)", "T7 construct": "gene hisS; His-tagged, recombinant, purified", "T7 sequence (P60906 2-424)": "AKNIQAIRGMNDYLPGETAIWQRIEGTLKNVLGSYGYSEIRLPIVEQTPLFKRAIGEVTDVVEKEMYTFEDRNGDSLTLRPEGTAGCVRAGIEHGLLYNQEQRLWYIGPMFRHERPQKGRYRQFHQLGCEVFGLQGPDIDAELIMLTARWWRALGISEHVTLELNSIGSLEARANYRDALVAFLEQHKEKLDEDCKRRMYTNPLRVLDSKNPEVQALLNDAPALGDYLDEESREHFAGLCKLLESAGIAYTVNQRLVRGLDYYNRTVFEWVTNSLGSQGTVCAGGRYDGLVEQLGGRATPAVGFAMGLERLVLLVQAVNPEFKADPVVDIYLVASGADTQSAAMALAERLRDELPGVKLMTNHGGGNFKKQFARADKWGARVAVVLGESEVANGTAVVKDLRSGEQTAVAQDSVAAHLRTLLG", "conditions": "15000 µM; 15 µM natural His (Table 3), 6 mM ATP, 17 mM MgCl2, E. coli total tRNA, pH 7.4, 37 °C; competitive", "source_text": "tRNA aminoacylation competition assay, MALDI-TOF MS on HisRS"}, "[8]": {"biological_target": "T8, AspRS (Escherichia coli, UniProt P21889)", "T8 construct": "gene aspS; His-tagged, recombinant, purified", "conditions": "50000 µM; 50 µM natural Asp (Table 3), 6 mM ATP, 17 mM MgCl2, E. coli total tRNA, pH 7.4, 37 °C; competitive", "source_text": "tRNA aminoacylation competition assay, MALDI-TOF MS on AspRS"}, "[9]": {"biological_target": "T9, TrpRS (Escherichia coli, UniProt P00954)", "T9 construct": "gene trpS", "conditions": "30000 µM; 30 µM natural Trp (Table 3), 6 mM ATP, 17 mM MgCl2, E. coli total tRNA, pH 7.4, 37 °C; competitive", "source_text": "tRNA aminoacylation competition assay, MALDI-TOF MS on TrpRS"}},
  "data": [
    {"smiles": "NC(Cc1ccc(O)c(F)c1)C(=O)O", "note": "(centres unmarked) [A3, 3-fluoro tyrosine]", "values": [
      {"measurement": "% Inhibition ^b", "setting": "[1]", "value": "46 (range 23.0) %"}
    ]},
    {"smiles": "C#CCCC(N)C(=O)O", "note": "(centres unmarked) [N1, 2-amino hex-5-ynoic acid]", "values": [
      {"measurement": "% Inhibition ^b", "setting": "[2]", "value": "82 (range 3.3) %"}
    ]},
    {"smiles": "N[C@@H](Cn1oc(=O)[nH]c1=O)C(=O)O", "note": "[A15, L-quisqualic acid]", "values": [
      {"measurement": "% Inhibition ^b", "setting": "[3]", "value": "52 (range 1.2) %"}
    ]},
    {"smiles": "NC1(C(=O)O)CCCC1", "note": "[α1, 1-amino cyclopentanoic acid]", "values": [
      {"measurement": "% Inhibition ^b", "setting": "[4]", "value": "59 (range 3.3) %"}
    ]},
    {"smiles": "CCCC[C@H](N)C(=O)O", "note": "[N3, L-norleucine]", "values": [
      {"measurement": "% Inhibition ^b", "setting": "[2]", "value": "73 (range 0.5) %"}
    ]},
    {"smiles": "CC(C)(C)C[C@H](N)C(=O)O", "note": "[N18, β-t-butyl-alanine]", "values": [
      {"measurement": "% Inhibition ^b", "setting": "[5]", "value": "52 (range 22.2) %"}
    ]},
    {"smiles": "O=C(O)[C@@H]1C=CCN1", "note": "[N23, 3,4-dehydro proline]", "values": [
      {"measurement": "% Inhibition ^b", "setting": "[6]", "value": "67 (range 12.6) %"}
    ]},
    {"smiles": "CC(C)(C)C(N)C(=O)O", "note": "(centres unmarked) [N13, t-butyl-glycine]", "values": [
      {"measurement": "% Inhibition ^b", "setting": "[4]", "value": "80 (range 0.4) %"}
    ]},
    {"smiles": "O=C(O)[C@@H]1CCN1", "note": "[N24, L-azetidine-2-carboxylic acid]", "values": [
      {"measurement": "% Inhibition ^b", "setting": "[6]", "value": "28 (range 10.0) %"}
    ]},
    {"smiles": "CC(CC(N)C(=O)O)C(F)(F)F", "note": "(centres unmarked) [N17, 5′,5′,5′-trifluoro leucine]", "values": [
      {"measurement": "% Inhibition ^b", "setting": "[5]", "value": "83 (range 16.7) %"}
    ]},
    {"smiles": "N[C@@H](Cc1nccs1)C(=O)O", "note": "[A1, β-2-thiazolyl-alanine]", "values": [
      {"measurement": "% Inhibition ^b", "setting": "[7]", "value": "20 (range 0.4) %"}
    ]},
    {"smiles": "N[C@H](C(=O)O)[C@H](O)C(=O)O", "note": "[C6, L-threo-β-hydroxy aspartic acid]", "values": [
      {"measurement": "% Inhibition ^b", "setting": "[8]", "value": "59 (range 0.5) %"}
    ]},
    {"smiles": "N[C@@H](Cc1csc2ccccc12)C(=O)O", "note": "[A23, 3-(thianaphthen-3-yl)-L-alanine]", "values": [
      {"measurement": "% Inhibition ^b", "setting": "[9]", "value": "19 (range 2.7) %"}
    ]},
    {"smiles": "[N-]=[N+]=NCC[C@H](N)C(=O)O", "note": "[N6]", "values": [
      {"measurement": "% Inhibition ^b", "setting": "[2]", "value": "97 (range 0.5) %"}
    ]}
  ]
}
